Measurements taken from ChEMBL document CHEMBL3046280, “Synthesis of 1-amidoalkyl-2-naphthols and oxazine derivatives with study of their antibacterial and antiviral activities” (Med Chem Res, 2013).
The source made the active and inactive calls. The calls are words filed in the database; no cut-off is given here.

Key:
[1] = tested on: Staphylococcus aureus; assay: Antibacterial activity against Staphylococcus aureus assessed as growth inhibition; type: functional
[2] = tested on: unidentified influenza virus; assay: Antiviral activity against unidentified influenza virus (H5N1) infected African green monkey Vero cells assessed as protection against virus-induced cytopathic effect incubated for 3 days measured on day 4 post infection by MTT assay; type: functional, organism-based
[3] = tested on: Proteus mirabilis; assay: Antibacterial activity against Proteus mirabilis assessed as growth inhibition; type: functional
[4] = tested on: Klebsiella pneumoniae; assay: Antibacterial activity against Klebsiella pneumoniae assessed as growth inhibition; type: functional
[5] = tested on: Escherichia coli; assay: Antibacterial activity against Escherichia coli assessed as growth inhibition; type: functional, organism-based
[6] = tested on: Bacillus subtilis; assay: Antibacterial activity against Bacillus subtilis assessed as growth inhibition; type: functional
[7] = tested on: Vero; assay: Cytotoxicity against Chlorocebus aethiops (African green monkey) Vero cells after 24 hr by MTT assay; type: cell-based; settings: chlorocebus sabaeus
[8] = tested on: Pseudomonas aeruginosa; assay: Antibacterial activity against Pseudomonas aeruginosa assessed as growth inhibition; type: functional, organism-based
[9] = Therapeutic index, ratio of LD50 for african green monkey Vero cells to EC50 for Avian influenza virus H5N1 infected in african green monkey Vero cells; type: cell-based; settings: read-out: Ratio LD50/EC50
[10] = tested on: Klebsiella pneumoniae; assay: Antibacterial activity against Klebsiella pneumoniae assessed as growth inhibition at 0.042 uM/ml; type: functional, organism-based
[11] = tested on: Bacillus subtilis; assay: Antibacterial activity against Bacillus subtilis assessed as growth inhibition at 0.042 uM/ml; type: functional, organism-based
[12] = tested on: Proteus mirabilis; assay: Antibacterial activity against Proteus mirabilis assessed as growth inhibition at 0.042 uM/ml; type: functional, organism-based

| Molecule | growth inhibition (GI) [1] | EC50 [2] [uM/ml] | growth inhibition (GI) [3] | diameter of the inhibition zone (DIZ) [4] [mm] | growth inhibition (GI) [5] | diameter of the inhibition zone (DIZ) [6] [mm] | LD50 [7] [uM/ml] | growth inhibition (GI) [8] | selectivity ratio [9] | growth inhibition (GI) [6] | diameter of the inhibition zone (DIZ) [1] [mm] | inhibition zone (IZ) [10] [mm] | inhibition zone (IZ) [11] [mm] | inhibition zone (IZ) [12] [mm] | growth inhibition (GI) [4] | diameter of the inhibition zone (DIZ) [3] [mm] |
| --- | --- | --- | --- | --- | --- | --- | --- | --- | --- | --- | --- | --- | --- | --- | --- | --- |
| O=C(NC(c1cn(-c2ccccc2)nc1-c1ccccc1)c1c(O)ccc2ccccc12)c1ccccc1 (stereo not given) | inactive | 0.018 | inactive | 14 | inactive | 20 | 0.098 | inactive | 5.44 | – | – | – | – | – | – | – |
| NC1=NC(c2c[nH]c3ccccc23)c2c(ccc3ccccc23)O1 (stereo not given) | inactive | 0.061 | inactive | 13 | inactive | 12 | 0.125 | inactive | 2.05 | – | – | – | – | – | – | – |
| NC1=NC(c2cn(-c3ccccc3)nc2-c2ccccc2)c2c(ccc3ccccc23)O1 (stereo not given) | inactive | 0.0148 | inactive | 11 | inactive | 12 | 0.083 | inactive | 5.61 | – | – | – | – | – | – | – |
| CC(=O)NC(c1cn(-c2ccccc2)nc1-c1ccccc1)c1c(O)ccc2ccccc12 (stereo not given) | inactive | 0.021 | inactive | 18 | inactive | – | 0.151 | inactive | 7.19 | inactive | – | – | – | – | – | – |
| c1ccc(-c2nn(-c3ccccc3)cc2C2NC(c3cn(-c4ccccc4)nc3-c3ccccc3)c3c(ccc4ccccc34)O2)cc1 (stereo not given) | – | 0.045 | inactive | 11 | inactive | 11 | 0.089 | inactive | 1.98 | – | 11 | – | – | – | – | – |
| c1ccc2c3c(ccc2c1)OC(c1c[nH]c2ccccc12)NC3c1c[nH]c2ccccc12 (stereo not given) | inactive | 0.168 | inactive | 12 | inactive | 13 | 0.122 | inactive | 0.726 | – | – | – | – | – | – | – |
| GENTAMICIN | – | – | – | – | – | – | – | – | – | – | – | 19 | 21 | 25 | – | – |
| O=C(NC(c1c(O)ccc2ccccc12)c1c[nH]c2ccccc12)c1ccccc1 (stereo not given) | – | 0.019 | inactive | – | inactive | 11 | 0.307 | inactive | 16.2 | – | 11 | – | – | – | inactive | – |
| c1ccc(C2=NC(c3c[nH]c4ccccc34)c3c(ccc4ccccc34)O2)cc1 (stereo not given) | – | 0.049 | inactive | 11 | inactive | 14 | 0.104 | inactive | 2.12 | – | 11 | – | – | – | – | – |
| CC(=O)NC(c1c(O)ccc2ccccc12)c1c[nH]c2ccccc12 (stereo not given) | – | 0.022 | inactive | – | inactive | 17 | 0.197 | inactive | 8.95 | – | 20 | – | – | – | inactive | – |
| NC(=O)NC(c1cn(-c2ccccc2)nc1-c1ccccc1)c1c(O)ccc2ccccc12 (stereo not given) | – | 0.025 | – | 11 | inactive | – | 0.171 | inactive | 6.84 | inactive | 24 | – | – | – | – | 0 |
| CC(=O)N[C@H]1[C@H]([C@H](O)[C@H](O)CO)OC(C(=O)O)=C[C@@H]1NC(=N)N [ZANAMIVIR] | – | 0.015 | – | – | – | – | 0.232 | – | 15.5 | – | – | – | – | – | – | – |
| NC(=O)NC(c1c(O)ccc2ccccc12)c1c[nH]c2ccccc12 (stereo not given) | inactive | 0.031 | inactive | 11 | inactive | – | 0.217 | inactive | 7 | inactive | – | – | – | – | – | – |
